Data taken from PubChem BioAssay AID1918942 (Molecular Pharmacology Branch, DTP, NCI, 2023).

Test system: 743489-274-T-PDC complex spheroid viability
Test: Anticancer human tumor 743489-274-T-PDC patient-derived renal cell carcinoma cell line growth inhibition
Details: for IC50: curve of first compound; for viability, T/C: stronger effect = lower value
How it was run: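 Complex spheroids of tumor cells with HUVEC and human MSCs, exposed to iadademstat combined with other agents. Each agent tested in half-log steps from near clinical Cmax (else 10 microM top), DMSO ≤0.25%.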

[1] = second compound 0.1 µM, first compound 0.000949 µM
[2] = second compound 0.1 µM, first compound 0.003 µM
[3] = second compound 0.1 µM, first compound 0.00949 µM
[4] = second compound 0.1 µM, first compound 0.03 µM
[5] = second compound 0.1 µM, first compound 0.0949 µM
[6] = second compound 0.1 µM, first compound 0.3 µM
[7] = second compound 0.316 µM, first compound 0.000949 µM
[8] = second compound 0.316 µM, first compound 0.003 µM
[9] = second compound 0.316 µM, first compound 0.00949 µM
[10] = second compound 0.316 µM, first compound 0.03 µM
[11] = second compound 0.316 µM, first compound 0.0949 µM
[12] = second compound 0.316 µM, first compound 0.3 µM
[13] = second compound 1 µM, first compound 0.000949 µM
[14] = second compound 1 µM, first compound 0.003 µM
[15] = second compound 1 µM, first compound 0.00949 µM
[16] = second compound 1 µM, first compound 0.03 µM
[17] = second compound 1 µM, first compound 0.0949 µM
[18] = second compound 1 µM, first compound 0.3 µM
[19] = second compound 3.16 µM, first compound 0.000949 µM
[20] = second compound 3.16 µM, first compound 0.003 µM
[21] = second compound 3.16 µM, first compound 0.00949 µM
[22] = second compound 3.16 µM, first compound 0.03 µM
[23] = second compound 3.16 µM, first compound 0.0949 µM
[24] = second compound 3.16 µM, first compound 0.3 µM
[25] = second compound 10 µM, first compound 0.000949 µM
[26] = second compound 10 µM, first compound 0.003 µM
[27] = second compound 10 µM, first compound 0.00949 µM
[28] = second compound 10 µM, first compound 0.03 µM
[29] = second compound 10 µM, first compound 0.0949 µM
[30] = second compound 10 µM, first compound 0.3 µM
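Further: spheroids exposed to compounds for 7 days before readout.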
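Wherever viability, T/C is given: 100% = DMSO vehicle control wells.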

CC[C@@]1(O)C(=O)OCc2c1cc1n(c2=O)Cc2cc3c(CN(C)C)c(O)ccc3nc2-1 + NC1CC1c1ccc(-c2cccc(O)c2)cc1
IC50 (second compound 0.1 µM): > 100 nM
IC50 (second compound 0.316 µM): > 100 nM
IC50 (second compound 1 µM): > 100 nM
IC50 (second compound 3.16 µM): 58.7 nM
IC50 (second compound 10 µM): > 100 nM
viability, T/C (second compound 0.1 µM, first compound 0.000316 µM): 98.9%
viability, T/C (second compound 0.1 µM, first compound 0.001 µM): 95.7%
viability, T/C (second compound 0.1 µM, first compound 0.00316 µM): 104%
viability, T/C (second compound 0.1 µM, first compound 0.01 µM): 97.8%
viability, T/C (second compound 0.1 µM, first compound 0.0316 µM): 66.4%
viability, T/C (second compound 0.1 µM, first compound 0.1 µM): 55.7%
viability, T/C (second compound 0.316 µM, first compound 0.000316 µM): 103%
viability, T/C (second compound 0.316 µM, first compound 0.001 µM): 99.6%
viability, T/C (second compound 0.316 µM, first compound 0.00316 µM): 89.7%
viability, T/C (second compound 0.316 µM, first compound 0.01 µM): 74.3%
viability, T/C (second compound 0.316 µM, first compound 0.0316 µM): 67.9%
viability, T/C (second compound 0.316 µM, first compound 0.1 µM): 53.9%
viability, T/C (second compound 1 µM, first compound 0.000316 µM): 97.7%
viability, T/C (second compound 1 µM, first compound 0.001 µM): 100%
viability, T/C (second compound 1 µM, first compound 0.00316 µM): 80%
viability, T/C (second compound 1 µM, first compound 0.01 µM): 76.3%
viability, T/C (second compound 1 µM, first compound 0.0316 µM): 68.5%
viability, T/C (second compound 1 µM, first compound 0.1 µM): 55.3%
viability, T/C (second compound 3.16 µM, first compound 0.000316 µM): 101%
viability, T/C (second compound 3.16 µM, first compound 0.001 µM): 86.7%
viability, T/C (second compound 3.16 µM, first compound 0.00316 µM): 78.3%
viability, T/C (second compound 3.16 µM, first compound 0.01 µM): 69.9%
viability, T/C (second compound 3.16 µM, first compound 0.0316 µM): 53.8%
viability, T/C (second compound 3.16 µM, first compound 0.1 µM): 45%
viability, T/C (second compound 10 µM, first compound 0.000316 µM): 120%
viability, T/C (second compound 10 µM, first compound 0.001 µM): 93%
viability, T/C (second compound 10 µM, first compound 0.00316 µM): 90.6%
viability, T/C (second compound 10 µM, first compound 0.01 µM): 70.5%
viability, T/C (second compound 10 µM, first compound 0.0316 µM): 77.6%
viability, T/C (second compound 10 µM, first compound 0.1 µM): 50.3%

CCc1c2c(nc3ccc(O)cc13)-c1cc3c(c(=O)n1C2)COC(=O)[C@]3(O)CC + NC1CC1c1ccc(-c2cccc(O)c2)cc1
IC50 (second compound 0.1 µM): 4.88 nM
IC50 (second compound 0.316 µM): 2.4 nM
IC50 (second compound 1 µM): 2.71 nM
IC50 (second compound 3.16 µM): 2.26 nM
IC50 (second compound 10 µM): 3.52 nM
viability, T/C [1]: 62.5%
viability, T/C [2]: 52.5%
viability, T/C [3]: 47.3%
viability, T/C [4]: 33.7%
viability, T/C [5]: 36.4%
viability, T/C [6]: 33.5%
viability, T/C [7]: 54.3%
viability, T/C [8]: 51.7%
viability, T/C [9]: 45.5%
viability, T/C [10]: 35%
viability, T/C [11]: 36.7%
viability, T/C [12]: 40.2%
viability, T/C [13]: 60.5%
viability, T/C [14]: 51.9%
viability, T/C [15]: 41.3%
viability, T/C [16]: 39%
viability, T/C [17]: 43.9%
viability, T/C [18]: 42.7%
viability, T/C [19]: 57%
viability, T/C [20]: 48.7%
viability, T/C [21]: 42.3%
viability, T/C [22]: 33.5%
viability, T/C [23]: 36.7%
viability, T/C [24]: 34.5%
viability, T/C [25]: 58.7%
viability, T/C [26]: 50.8%
viability, T/C [27]: 42.5%
viability, T/C [28]: 35.3%
viability, T/C [29]: 32%
viability, T/C [30]: 38.8%

COc1cc(C2c3cc4c(cc3C(OC3OC5COC(C)OC5C(O)C3O)C3COC(=O)C23)OCO4)cc(OC)c1O (stereo not given) + NC1CC1c1ccc(-c2cccc(O)c2)cc1
IC50 (second compound 0.1 µM): > 3000 nM
IC50 (second compound 0.316 µM): > 3000 nM
IC50 (second compound 1 µM): > 3000 nM
IC50 (second compound 3.16 µM): > 3000 nM
IC50 (second compound 10 µM): > 3000 nM
viability, T/C [3]: 107%
viability, T/C [4]: 91.7%
viability, T/C [5]: 98%
viability, T/C [6]: 88.7%
viability, T/C (second compound 0.1 µM, first compound 0.949 µM): 77.6%
viability, T/C (second compound 0.1 µM, first compound 3 µM): 76.9%
viability, T/C [9]: 103%
viability, T/C [10]: 99.5%
viability, T/C [11]: 91.9%
viability, T/C [12]: 76.7%
viability, T/C (second compound 0.316 µM, first compound 0.949 µM): 74.6%
viability, T/C (second compound 0.316 µM, first compound 3 µM): 79.7%
viability, T/C [15]: 92.8%
viability, T/C [16]: 104%
viability, T/C [17]: 91.5%
viability, T/C [18]: 92.2%
viability, T/C (second compound 1 µM, first compound 0.949 µM): 85.8%
viability, T/C (second compound 1 µM, first compound 3 µM): 76.5%
viability, T/C [21]: 87.9%
viability, T/C [22]: 95.2%
viability, T/C [23]: 87.6%
viability, T/C [24]: 87.5%
viability, T/C (second compound 3.16 µM, first compound 0.949 µM): 78.6%
viability, T/C (second compound 3.16 µM, first compound 3 µM): 79.3%
viability, T/C [27]: 97.2%
viability, T/C [28]: 89.9%
viability, T/C [29]: 97%
viability, T/C [30]: 83.9%
viability, T/C (second compound 10 µM, first compound 0.949 µM): 80.7%
viability, T/C (second compound 10 µM, first compound 3 µM): 70.4%

Nc1ccn(C2OC(CO)C(O)C2(F)F)c(=O)n1 (stereo not given) + NC1CC1c1ccc(-c2cccc(O)c2)cc1
IC50 (second compound 0.1 µM): > 300 nM
IC50 (second compound 0.316 µM): 46.5 nM
IC50 (second compound 1 µM): 153 nM
IC50 (second compound 3.16 µM): 25.5 nM
IC50 (second compound 10 µM): 110 nM
viability, T/C [1]: 62.5%
viability, T/C [2]: 58.5%
viability, T/C [3]: 95.2%
viability, T/C [4]: 58%
viability, T/C [5]: 63.7%
viability, T/C [6]: 48.5%
viability, T/C [7]: 67.2%
viability, T/C [8]: 56.3%
viability, T/C [9]: 99.8%
viability, T/C [10]: 51.4%
viability, T/C [11]: 51.2%
viability, T/C [12]: 44.2%
viability, T/C [13]: 57.1%
viability, T/C [14]: 51.7%
viability, T/C [15]: 87%
viability, T/C [16]: 53.9%
viability, T/C [17]: 46.5%
viability, T/C [18]: 47.1%
viability, T/C [19]: 58.4%
viability, T/C [20]: 62.2%
viability, T/C [21]: 97.8%
viability, T/C [22]: 46.3%
viability, T/C [23]: 44%
viability, T/C [24]: 48.4%
viability, T/C [25]: 64.9%
viability, T/C [26]: 51.4%
viability, T/C [27]: 87.2%
viability, T/C [28]: 47.6%
viability, T/C [29]: 46.2%
viability, T/C [30]: 44.9%
